Assay results from patent US20230372318A1, “METHODS FOR TREATING A SUBJECT HAVING MULTIPLE SYSTEM ATROPHY” (Theravance Biopharma R&D IP, LLC, priority 2022, published 2023).
Entries after “also recorded” stand apart in the source; their conditions may differ.

How the values were obtained:
[1] = test system: heart rate (HR) and mean arterial pressure (MAP); assay: Cardiovascular model in anesthetized rat: intrinsic effect on MAP and HR; format: in vivo; details: anesthetized rats
Procedure: These studies were conducted to assess the effect of a single administration of ampreloxetine on heart rate (HR) and mean arterial pressure (MAP) in anesthetized rats. Using this cardiovascular model, the intrinsic effect on HR and the inhibition of tyramine pressor response were evaluated as surrogate measures that reflect the ability of ampreloxetine to inhibit norepinephrine transporters in the periphery.
Normotensive male Sprague-Dawley rats weighing between 250-350 g were anesthetized with an intraperitoneal injection (IP) of thiobutabarbital (Inactin). All animals were kept under complete anesthesia (i.e., absence of response to toe pinch test) for the surgery and for the duration of the study. The right common carotid artery and jugular vein were isolated and catheterized. The trachea was intubated to keep the airway open during the study. After completion of surgery, the arterial catheter was connected to a pressure transducer and baseline blood pressure [Systolic (SBP), Mean Arterial (MAP) and Diastolic (DBP)] and heart rate (HR) were recorded using the Notocord-HEM data acquisition system. Following at least 60 min of baseline (i.e., the last 10 min was stable), vehicle (10% Tween20, 2 mL/kg, IP) was administered and any potential effect was monitored for at least 10 min. After this period, rats were injected with either vehicle or ampreloxetine ([…], 2 mL/kg, IP) and changes in MAP and HR were monitored for 25 min. Rats were then challenged intravenously via the jugular vein catheter, with non-cumulative bolus doses of tyramine (0.03, 0.1, 0.3, and 1 mg/kg, 1 mL/kg, IV) given at 5 min intervals. After the last dose of tyramine, data acquisition continued for another 10 min before the experiment was terminated. In a separate group of animals, blood was collected to assess the concentration of ampreloxetine in plasma at 15 min and 60 min after dosing. Free plasma concentrations obtained from 15 min were used to construct the concentration response curve (CRC) to MAP and HR while concentrations from 60 min were used for the tyramine CRC. Animals were euthanized by carbon dioxide asphyxiation followed by thoracotomy.
Intrinsic hemodynamic effects were reported as the maximum change in MAP or HR induced by ampreloxetine before tyramine challenge. Inhibition of tyramine effect was normalized to the response to 1 mg/kg dose of tyramine in the vehicle control group. Concentration response curves (CRCs) of the change in MAP, HR and inhibition of tyramine response were analyzed through iterative curve fitting to a logistic equation using Prism 5.00™ (GraphPad, Inc.). The equation used was as follows:
Y=(Bottom+Top−Bottom)/(1+10^((Log EC50−X)*HillSlope)) […]

rat native NET = target: T1, rat native NET (Rattus norvegicus, UniProt Q63380); assay: Radioligand binding, [3H]-nisoxetine, rat cortical membranes; details: mean (95% confidence intervals)
T1 construct: human recombinant and rat native monoamine transporters; from tissue; host or cells: rat cerebral cortex (membranes; synaptosomes)
Description: The in vitro pharmacology of ampreloxetine at human recombinant and rat native monoamine transporters was characterized as described in Smith et al., Inter. J. Neuropsychopharmcol. (2015) 1-11; and Tsuruda et al., J. Pharmacol. Toxicol. Meth. (2010) 61:192-204. See also, e.g., U.S. Pat. Nos. 8,304,432 B2 and 8,304,433 B2. Radioligands were sourced commercially (Perkin Elmer LifeSciences or GE Healthcare Life Sciences).
Briefly, membranes prepared from HEK293 (Human Embryonic Kidney 293) or CHO-K1 (Chinese Hamster Ovary-K1) cells stably transfected with human recombinant SERT (HEK293-hSERT), NET (HEK293-hNET), or DAT (CHO-K1-hDAT) were incubated for 1 hr at 22° C. in the absence, or presence, of 4-[2-(2,4,6-trifluorophenoxymethyl)phenyl]piperidine and [^3H]-citalopram (1.0 nM) for SERT, [^3H]-nisoxetine (2.0 nM) for NET, and [^3H]-WIN35428 (3.0 nM) for DAT in 50 mM Tris-HCl, 120 mM NaCl, 5 mM KCl, 0.025% BSA, 100 μM ascorbic acid, pH 7.4. Rat cortical membrane preparations were incubated with [^3H]-citalopram (2.0 nM) for SERT or [^3H]-nisoxetine (4.0 nM) for NET for 1 hr at 22° C. […] Binding and uptake assays were terminated by rapid filtration and radioactivity determined by liquid scintillation spectroscopy. […] Selectivity for NET (rounded to one significant figure) was determined as follows: […]

[2] = test system: subjects with primary autonomic failures (MSA, PD, or PAF) and symptomatic nOH; assay: Phase 3 4-week clinical study in symptomatic nOH (Example 6)
Description: The first Phase 3 study was a randomized, double-blind, placebo-controlled, parallel-group, multicenter study designed to evaluate its efficacy, safety, and tolerability in subjects with primary autonomic failures (MSA, PD, or PAF) and symptomatic nOH after 4 weeks of treatment.
This study was a Phase 3, randomized, double-blind, placebo-controlled, parallel-group, multicenter study to evaluate efficacy, safety, and tolerability of ampreloxetine (administered as ampreloxetine hydrochloride) in subjects with primary autonomic failures (MSA, PD, or PAF) and symptomatic nOH after four weeks of treatment. Subjects participated in the study for approximately 10 weeks.
Subjects were randomized in a 1:1 ratio to each of either ampreloxetine or placebo group stratified by the subject's disease type (MSA, PD, or PAF).
Subjects were randomized in a 1:1 ratio to receive either ampreloxetine (test product) or placebo (reference product) once daily through the end of the treatment period.
Subjects randomized to receive ampreloxetine began taking study medication on Day 2 in the morning at a dose of 10 mg and continued to take this dose once daily through the end of the treatment period.
The study consisted of three periods: (i) 4-week screening, (ii) 4-week randomized treatment, and (iii) 2-week follow up.
Following randomization and completion of study assessments, the subject received a single 10-mg dose of ampreloxetine (or matching placebo) once daily (QD) for the remaining double-blind treatment period.
The efficacy assessments for this study included: OHQ; PGI-C; and incidence of falls. The exploratory assessments included: Orthostatic standing test; PK and pharmacodynamics; Non-Motor Symptom Scale (NMSS); EQ-5D-5L; Hospital Anxiety and Depression Scale (HADS); and Burden Scale for Family Caregivers-short version (BSFC-s).
The primary study endpoint was the change from baseline in OHSA #1 (dizziness, lightheadedness, feeling faint, or feeling like blacking out) at Week 4.
The primary efficacy evaluation was the change from baseline of OHSA #1 at Week 4. Baseline was defined as Day 1 pre-dose measurement. A mixed model for repeated measures (MMRM) was fitted to compare treatments. The model included fixed effect class terms of treatment, baseline disease type (MSA, PD, PAF), week, and continuous covariate of baseline OHSA #1 score, a random subject effect, with an unstructured covariance structure using the FAS.

[3] = MSA subjects, Week 4, 10 mg, N 33

T1 sequence (Q63380 1-617): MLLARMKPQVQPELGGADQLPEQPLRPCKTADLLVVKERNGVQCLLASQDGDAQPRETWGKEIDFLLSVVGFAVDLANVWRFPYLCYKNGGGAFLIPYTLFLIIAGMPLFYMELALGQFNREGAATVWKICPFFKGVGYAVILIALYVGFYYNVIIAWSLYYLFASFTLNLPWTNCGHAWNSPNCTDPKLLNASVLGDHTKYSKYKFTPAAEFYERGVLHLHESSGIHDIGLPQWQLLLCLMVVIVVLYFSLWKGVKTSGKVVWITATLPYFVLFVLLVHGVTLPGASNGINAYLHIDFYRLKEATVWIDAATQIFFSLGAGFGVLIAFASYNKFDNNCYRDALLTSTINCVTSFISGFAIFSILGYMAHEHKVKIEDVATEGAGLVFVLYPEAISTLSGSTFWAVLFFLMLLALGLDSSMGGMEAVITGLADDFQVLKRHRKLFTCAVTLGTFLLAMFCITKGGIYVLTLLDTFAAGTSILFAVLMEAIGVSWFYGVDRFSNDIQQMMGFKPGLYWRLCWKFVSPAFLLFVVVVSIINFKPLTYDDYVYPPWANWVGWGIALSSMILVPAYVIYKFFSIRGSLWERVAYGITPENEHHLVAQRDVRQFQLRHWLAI

**Q.** Fc1cc(F)c(OCc2ccccc2C2CCNCC2)c(F)c1 [Ampreloxetine, 4-[2-(2,4,6-trifluorophenoxymethyl)phenyl]piperidine] was tested. Which “Effect on MAP and HR” value ([1]; 0.01-30 mg/kg IP) did it give?
**A.** dose dependently increased MAP and HR

**Q.** What about the “Maximum change in HR” value ([1]; 0.01-30 mg/kg IP) of the same compound?
**A.** 28.1 (22.4-33.7) bpm

**Q.** And the “Maximum change in MAP” value ([1]; 0.01-30 mg/kg IP)?
**A.** 13.2 (4.4-22.1) mm Hg

**Q.** What about the “HR potency (HR EC25), free plasma concentration giving 25 bpm change in HR” value ([1]; IP, free plasma concentration at 15 min) of the same compound?
**A.** 8.6 nM

**Q.** What about the “Transporter Binding: pKi, NET” value (rat native NET) of the same compound?
**A.** 8.7 (8.5, 8.9)

**Q.** And the Deaths ([2]; 10 mg once daily, 4 weeks)?
**A.** no deaths were reported

**Q.** And the Supine hypertension ([2]; 10 mg once daily, 4 weeks)?
**A.** no signal for supine hypertension

**Q.** What about the “Serious adverse events, number of subjects” value ([2]; 10 mg once daily, 4 weeks, none considered related to study drug) of the same compound?
**A.** four

**Q.** What about the “Anxiety Total Score, Change from Baseline, LS Mean Difference” value ([2]; MSA subjects, Week 4, 10 mg vs placebo, P-value 0.136) of the same compound?
**A.** −1.09

**Q.** What about the “Anxiety Total Score, Change from Baseline, LS Mean” value [2, 3] of the same compound?
**A.** −0.75

**Q.** What about the “Anxiety Total Score, Change from Baseline, Mean” value [2, 3] of the same compound?
**A.** −0.67

**Q.** And the “Anxiety Total Score, Change from Baseline, Median” value [2, 3]?
**A.** −1.00

**Q.** What about the “Primary endpoint: change from baseline of OHSA #1 score vs placebo” value ([2]; Week 4, 10 mg once daily, MSA, PD or PAF) of the same compound?
**A.** did not meet its primary endpoint; also recorded: did not meet the primary endpoint
